Reference: article PMC5000727, “Molecular Insights into the Potential Toxicological Interaction of 2-Mercaptothiazoline with the Antioxidant Enzyme—Catalase” (International Journal of Molecular Sciences, 2016)

Target: T1, catalase (CAT), from bovine liver (Bos taurus, UniProt P00432)
T1 construct: native enzyme from bovine liver, commercial (Sigma), EC 1.11.1.6; homotetramer; PDB 1TGU printed only as docking model
T1 sequence (P00432 2-527): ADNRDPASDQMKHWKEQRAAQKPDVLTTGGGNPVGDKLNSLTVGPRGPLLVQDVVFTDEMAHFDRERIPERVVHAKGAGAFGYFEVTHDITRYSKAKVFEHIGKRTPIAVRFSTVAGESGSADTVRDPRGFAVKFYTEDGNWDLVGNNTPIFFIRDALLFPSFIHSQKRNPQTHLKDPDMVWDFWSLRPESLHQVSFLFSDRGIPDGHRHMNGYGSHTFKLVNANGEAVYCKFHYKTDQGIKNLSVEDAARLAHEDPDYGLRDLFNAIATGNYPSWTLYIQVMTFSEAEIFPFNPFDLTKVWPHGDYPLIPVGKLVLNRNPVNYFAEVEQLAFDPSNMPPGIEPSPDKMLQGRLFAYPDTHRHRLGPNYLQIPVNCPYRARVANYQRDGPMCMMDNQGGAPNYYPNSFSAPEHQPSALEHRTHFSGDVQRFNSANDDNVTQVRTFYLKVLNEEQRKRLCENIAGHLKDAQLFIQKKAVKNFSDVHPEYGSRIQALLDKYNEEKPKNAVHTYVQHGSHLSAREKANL
Test: intrinsic fluorescence quenching (ex […] nm)
Assay type: binding
Settings: double-log; pH 7.4, 291 K, phosphate buffer; n = 1.14; unit printed mol·L^−1 but must be L·mol^−1 (printed ΔG° agrees); also measured at 300, 309, 318 K

S=C1NCCS1 [2-mercaptothiazoline, 1,3-thiazolidine-2-thione]
Ka (× 10^4 mol.L^-1): 2.97 × 10^4 mol·L^−1
